Results: patent publication US20100028889A1, “COMPANION DIAGNOSTIC ASSAYS FOR CANCER THERAPY” (ABBOTT LABORATORIES, priority 2006, published 2010)
Read-outs that look alike come from different tables or passages of the source.

Key:
DMS 53 = assay: cell cytotoxicity EC50, CellTiter Glo, SCLC cell line; format: cell-based, human
Protocol: (§1) The SCLC and leukemia/lymphoma cell lines listed below were obtained from the American Type Culture Collection (Manassas, Va.), Deutsche Sammlung von Mikroorganismen und Zellkulturen (DSMZ, Braunsweig, Germany), or were the generous gift from Dr. Louis Staudt (National Cancer Institute) and were cultured as described in Tse, C., Shoemaker, A. R., Adickes, J., et al., “ABT-263: a potent and orally bioavailable Bcl-2 family inhibitor,” Cancer Res 2008; 68: 3421-3428; and Tahir, S. K., Yang, X., Anderson, M. G., et al., “Influence of Bcl-2 family members on the cellular response of small-cell lung cancer cell lines to ABT-737,” Cancer Res 2007; 67: 1176-1183.
(§2) Cells were treated at 10,000 or 50,000 cells per well for adherent or suspension cells, respectively, in 96-well microtiter plates in the presence of 10% human serum for 48 hours with or without ABT-263, in a humidified chamber with 5% CO2. ABT-263 was synthesized as previously described in Tse, C., Shoemaker, A. R., Adickes, J., et al., “ABT-263: a potent and orally bioavailable Bcl-2 family inhibitor,” Cancer Res 2008; 68: 3421-3428; and Oltersdorf, T., Elmore, S. W., Shoemaker, A. R., et al., “An inhibitor of Bcl-2 family proteins induces regression of solid tumours,” Nature 2005; 435: 677-681, and cell cytotoxicity EC50 values were assessed using CellTiter Glo (Promega, Madison Wis.).

NCI-H128 = assay: as above; format: cell-based, human
Protocol: as §1, §2

NCI-H1436 = assay: as above; format: cell-based, human
Protocol: as §1, §2

NCI-H146 = assay: as above; format: cell-based, human
Protocol: as §1, §2

NCI-H1688 = assay: as above; format: cell-based, human
Protocol: as §1, §2

NCI-H1836 = assay: as above; format: cell-based, human
Protocol: as §1, §2

NCI-H187 = assay: as above; format: cell-based, human
Protocol: as §1, §2

NCI-H1930 = assay: as above; format: cell-based, human
Protocol: as §1, §2

NCI-H1963 = assay: as above; format: cell-based, human
Protocol: as §1, §2

NCI-H196 = assay: as above; format: cell-based, human
Protocol: as §1, §2

NCI-H345 = assay: as above; format: cell-based, human
Protocol: as §1, §2

NCI-H378 = assay: as above; format: cell-based, human
Protocol: as §1, §2

NCI-H740 = assay: as above; format: cell-based, human
Protocol: as §1, §2

NCI-H889 = assay: as above; format: cell-based, human
Protocol: as §1, §2

SHP-77 = assay: as above; format: cell-based, human
Protocol: as §1, §2

SW 1271 = assay: as above; format: cell-based, human
Protocol: as §1, §2

NCI-H526 = assay: sensitivity of SCLC cell line, procedure of Oltersdorf; format: cell-based; settings: Homo sapiens, read-out: sensitivity class by EC50
Protocol: (§3) The following SCLC cell lines were obtained from ATCC (Manassis, Va.): NCI-H889, NCI-H1963, NCI-H1417, NCI-H146, NCI-H187, DMS53, NCI-H510, NCI-H209, NCI-H211, NCI-H345, NCI-H524, NCI-H69, DMS79, SHP77, NCI-H1688, NCI-H446, NCI-H740, NCI-H1048, NCI-H82, NCI-H196, SW1271, H69AR, NCI-H526, NCI-H865, NCI-H748, NCI-H711, and DMS114. All cells were cultured in the ATCC recommended media at 37° C. in a humidified atmosphere containing 5% CO2. The following leukemia and lymphoma cell lines were obtained from ATCC (Manassis, Va.): MV-4-11, RS4;11, Loucy, KG-1A, DOHH2, Rs11380, CCRF-HSB-2, CCRF-CEM, CEM/C1, Reh, SUP-B15, MOLT-4, SUDHL4, HL-60, RPMI 8226, A3, Daudi, WSU-NHL, Pfeiffer, Jurkat I 9.2, Jurkat, MEG-01, U-937, K-562, and Raji.
(§4) The 27 SCLC cell lines were tested for sensitivity to ABT-737 using the procedure described in Oltersdorf, T., “An inhibitor of Bcl-2 family proteins induces regression of solid tumours”, Nature, 435: 677-681, 2005, with a cell line classified as sensitive if its EC50<5 μM and as resistant if its EC50>5 µM. The sensitive cell line group consisted of NCI-H889, NCI-H1963, NCI-H1417, NCI-H146, DMS 53, NCI-H187, NCI-H510, NCI-H209, NCI-H345, NCI-H526, NCI-H211, NCI-H865, NCI-H524, NCI-H748, DMS 79, NCI-H69, NCI-H711, SHP 77, NCI-H1688, and the resistant cell line group was comprised of NCI-H446, NCI-H740, NCI-H1048, NCI-H82, NCI-H196, SW1271, DMS 114, and NCI-H69AR.

NCI-H711 = assay: as above; format: cell-based; settings: Homo sapiens, read-out: sensitivity class by EC50
Protocol: as §3, §4

NCI-H748 = assay: as above; format: cell-based; settings: Homo sapiens, read-out: sensitivity class by EC50
Protocol: as §3, §4

[1] = 10% human serum, 48 hours, read-out: EC50
[2] = Homo sapiens, read-out: Response Designation

SMILES: CC1(C)CCC(c2ccc(Cl)cc2)=C(CN2CCN(c3ccc(C(=O)NS(=O)(=O)c4ccc(N[C@H](CCN5CCOCC5)CSc5ccccc5)c(S(=O)(=O)C(F)(F)F)c4)cc3)CC2)C1 [ABT-263, N-(4-(4-((2-(4-chlorophenyl)-5,5-dimethyl-1-cyclohex-1-en-1-yl)methyl)piperazin-1-yl)benzoyl)-4-(((1R)-3-(morpholin-4-yl)-1-((phenylsulfanyl)methyl)propyl)amino)-3-((trifluoromethyl)sulfonyl)benzenesulfonamide]
- EC50 (DMS 53; [1]): 1.6 µM
- EC50 (DMS 53; [2]): ≤ 4.1 µM
- EC50 (NCI-H128; [1]): 2.5 µM
- EC50 (NCI-H128; [2]): ≤ 4.1 µM
- EC50 (NCI-H1436; [1]): 1 µM
- EC50 (NCI-H1436; [2]): ≤ 4.1 µM
- EC50 (NCI-H146; [1]): 0.11 µM
- EC50 (NCI-H146; [2]): ≤ 4.1 µM
- EC50 (NCI-H1688; [1]): 8.07 µM
- EC50 (NCI-H1688; [2]): > 4.1 µM
- EC50 (NCI-H1836; [1]): 0.4 µM
- EC50 (NCI-H1836; [2]): ≤ 4.1 µM
- EC50 (NCI-H187; [1]): 0.21 µM
- EC50 (NCI-H187; [2]): ≤ 4.1 µM
- EC50 (NCI-H1930; [1]): 3 µM
- EC50 (NCI-H1930; [2]): ≤ 4.1 µM
- EC50 (NCI-H1963; [1]): 0.18 µM
- EC50 (NCI-H1963; [2]): ≤ 4.1 µM
- EC50 (NCI-H196; [1]): 38.6 µM
- EC50 (NCI-H196; [2]): > 4.1 µM
- EC50 (NCI-H345; [1]): 2.16 µM
- EC50 (NCI-H345; [2]): ≤ 4.1 µM
- EC50 (NCI-H378; [1]): > 50 µM
- EC50 (NCI-H378; [2]): > 4.1 µM
- EC50 (NCI-H740; [1]): > 10 µM
- EC50 (NCI-H740; [2]): > 4.1 µM
- EC50 (NCI-H889; [1]): 0.14 µM
- EC50 (NCI-H889; [2]): ≤ 4.1 µM
- EC50 (SHP-77; Homo sapiens, SHP77, read-out: Response Designation): ≤ 4.1 µM
- EC50 (SHP-77; SHP77, 10% human serum, 48 hours, read-out: EC50): 3.9 µM
- EC50 (SW 1271; Homo sapiens, SW1271, read-out: Response Designation): > 4.1 µM
- EC50 (SW 1271; SW1271, 10% human serum, 48 hours, read-out: EC50): 33.9 µM

SMILES: CN(C)CC[C@H](CSc1ccccc1)Nc1ccc(S(=O)(=O)NC(=O)c2ccc(N3CCN(Cc4ccccc4-c4ccc(Cl)cc4)CC3)cc2)cc1[N+](=O)[O-] [ABT-737, N-(4-(4-((4′-chloro(1,1′-biphenyl)-2-yl)methyl)piperazin-1-yl)benzoyl)-4-(((1R)-3-(dimethylamino)-1-((phenylsulfanyl)methyl)propyl)amino)-3-nitrobenzenesulfonamide]
- EC50 (NCI-H526): < 5 µM
- EC50 (NCI-H711): < 5 µM
- EC50 (NCI-H748): < 5 µM
